{"source": "paper PMC8922279", "about": "“Identification of β-Lactams Active against Mycobacterium tuberculosis by a Consortium of Pharmaceutical Companies and Academic Institutions” (ACS Infectious Diseases, 2022)", "key": {"CYP3A4": {"target": "CYP3A4 (Homo sapiens, UniProt P08684)", "sequence (P08684 whole entry, species assumed)": "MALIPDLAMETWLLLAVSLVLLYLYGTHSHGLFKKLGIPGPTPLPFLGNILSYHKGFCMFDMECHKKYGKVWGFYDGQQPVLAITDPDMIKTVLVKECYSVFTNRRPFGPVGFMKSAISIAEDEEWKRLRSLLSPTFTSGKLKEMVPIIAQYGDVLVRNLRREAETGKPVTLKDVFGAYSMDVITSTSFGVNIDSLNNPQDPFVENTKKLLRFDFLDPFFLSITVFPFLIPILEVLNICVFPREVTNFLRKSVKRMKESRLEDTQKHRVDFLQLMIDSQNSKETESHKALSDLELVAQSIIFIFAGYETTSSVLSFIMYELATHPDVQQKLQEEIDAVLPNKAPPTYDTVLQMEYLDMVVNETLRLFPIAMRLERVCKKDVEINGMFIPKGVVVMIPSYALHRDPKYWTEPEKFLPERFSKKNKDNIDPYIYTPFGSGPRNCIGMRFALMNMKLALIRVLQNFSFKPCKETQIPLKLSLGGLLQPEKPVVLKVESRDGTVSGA", "experiment": "CYP3A4 inhibition"}, "in vivo": {"experiment": "in vivo", "settings": "female, CD-1, mouse"}, "in vitro [1]": {"experiment": "in vitro", "settings": "monkey, plasma"}, "plasma proteins": {"tested_on": "plasma proteins", "settings": "4 h, 2 μM, pH 7.4"}, "in vitro [2]": {"experiment": "in vitro", "settings": "SD, rat, plasma, Plasma stability % Remaining"}, "in vitro [3]": {"experiment": "in vitro", "settings": "beagle, dog, plasma"}, "in vitro [4]": {"experiment": "in vitro", "settings": "human"}, "WT Mtb H37Rv": {"tested_on": "WT Mtb H37Rv", "experiment": "Colony-forming unit (CFU) assay, replicating WT Mtb H37Rv", "assay_type": "cell-based, Mycobacterium tuberculosis"}, "[5]": {"settings": "female, 129sv DHP-1 knockout, mouse, in vivo"}, "C. albicans": {"tested_on": "C. albicans", "experiment": "Microbial spectrum, C. albicans", "assay_type": "cell-based, Candida albicans"}, "S. aureus": {"tested_on": "S. aureus", "experiment": "Microbial spectrum, S. aureus", "assay_type": "cell-based, Staphylococcus aureus"}, "CYP1A2": {"tested_on": "CYP1A2", "assay_type": "in vitro ADME", "settings": "human, hepatocytes, 3 µM", "protocol": "(§1) Metabolic stability and induction of human hepatocytes were performed as previously described.[71]"}, "CYP3A5": {"tested_on": "CYP3A5", "assay_type": "in vitro ADME", "settings": "human, hepatocytes, 3 µM", "protocol": "as §1"}, "CYP2B6": {"tested_on": "CYP2B6", "assay_type": "in vitro ADME", "settings": "human, hepatocytes, 3 µM", "protocol": "as §1"}, "Mtb H37Rv": {"tested_on": "Mtb H37Rv", "experiment": "MIC90 against replicating (R) Mtb H37Rv, with or without clavulanate", "assay_type": "cell-based, Mycobacterium tuberculosis", "settings": "Table S4"}, "in vitro [6]": {"experiment": "in vitro", "settings": "beagle, dog, plasma, pH 7.4"}, "in vitro [7]": {"experiment": "in vitro", "settings": "cynomolgus monkey, plasma, pH 7.4"}, "physchem": {"experiment": "physchem", "settings": "simulated gi fluid, pH 6.5, FaSSIF Stability, % remaining"}, "E. coli": {"tested_on": "E. coli", "experiment": "Microbial spectrum, E. coli", "assay_type": "cell-based, Escherichia coli"}, "[8]": {"settings": "simulated gi fluid, 10 μM, pH 6.5"}}}
{"compound": "O=C(Cc1ccc(C2=NCCN2)cc1)N[C@@H]1C(=O)N2C(C(=O)O)=C(CSc3nncs3)CS[C@H]12", "note": "[TBBL-0000316]", "values": [{"measurement": "IC50", "setting": "CYP3A4", "result": "> 25", "unit": "µM"}, {"measurement": "AUC(0-t)", "setting": "in vivo; iv, 5 mg/kg", "result": 37100, "unit": "ng·h/mL"}, {"measurement": "Vd", "setting": "in vivo; iv, 5 mg/kg", "result": 0.11, "unit": "L/kg"}, {"measurement": "clearance", "setting": "in vivo; iv, 5 mg/kg", "result": 2.25, "unit": "mL/min/kg"}, {"measurement": "half-life", "setting": "in vivo; iv, 5 mg/kg", "result": 34.8, "unit": "min"}, {"measurement": "k el", "setting": "in vivo; iv, 5 mg/kg", "result": 0.000333, "unit": "s⁻¹"}, {"measurement": "AUC(0-t)", "setting": "in vivo; po, 25 mg/kg", "result": 542, "unit": "ng·h/mL"}, {"measurement": "bioavailability", "setting": "in vivo; po, 25 mg/kg", "result": 0.3, "unit": "%"}, {"measurement": "remaining at 2 h, 2 μM", "setting": "in vitro [1]", "result": 114, "unit": "%"}, {"measurement": "% bound to plasma, CD-1 Mouse", "setting": "plasma proteins", "result": 18, "unit": "%"}, {"measurement": "remaining at 2 h, 2 μM", "setting": "in vitro [2]", "result": 85.9, "unit": "%"}, {"measurement": "remaining at 2 h, 2 μM", "setting": "in vitro [3]", "result": 77.3, "unit": "%"}, {"measurement": "Papp A→B at 120 min, 3 μM", "setting": "in vitro [4]; Caco-2, pH 7.4", "result": 0.31, "unit": "×10⁻⁶ cm/s"}, {"measurement": "Papp B→A at 120 min, 3 μM", "setting": "in vitro [4]; Caco-2, pH 7.4", "result": 0.32, "unit": "×10⁻⁶ cm/s"}, {"measurement": "Papp at 120 min, 3 µM", "setting": "in vitro [4]; Caco-2, pH 7.4", "result": 0.3, "unit": "×10⁻⁶ cm/s"}, {"measurement": "efflux ratio at 120 min, 3 μM", "setting": "in vitro [4]; Caco-2, pH 7.4", "result": 1.06}, {"measurement": "recovery at 120 min, 3 μM", "setting": "in vitro [4]; Caco-2, pH 7.4, Caco-2 Mean Recovery % A to B", "result": 104, "unit": "%"}, {"measurement": "recovery at 120 min, 3 μM", "setting": "in vitro [4]; Caco-2, pH 7.4, Caco-2 Mean Recovery % B to A", "result": 110, "unit": "%"}, {"measurement": "reduction in CFU", "setting": "WT Mtb H37Rv; daily dosing for 5 days with 4 μg/mL clavulanate, at ≥1 μM", "result": "3–4 log10"}, {"measurement": "reduction in CFU", "setting": "WT Mtb H37Rv; single dose at 10 μM, one-week exposure, 4 μg/mL clavulanate", "result": 3.5, "unit": "log10"}, {"measurement": "Tlast", "setting": "[5]", "result": 6.0, "unit": "h"}, {"measurement": "MIC90", "setting": "C. albicans; Candida albicans, C. albicans", "result": "> 100", "unit": "µM"}, {"measurement": "C.albicans R (MIC90)", "setting": "C. albicans; no clavulanate, Table S4", "result": "> 100", "unit": "µM"}, {"measurement": "MIC90", "setting": "S. aureus; Staphylococcus aureus, S. aureus, with 4 μg/mL clavulanate", "result": 0.86, "unit": "µM"}, {"measurement": "S.aureus R + CLAV (MIC90)", "setting": "S. aureus; clavulanate 4 μg/mL, Table S4", "result": 0.9, "unit": "µM"}, {"measurement": "induction of expression of CYP1A2", "setting": "CYP1A2", "result": "< 2", "unit": "fold"}, {"measurement": "induction of expression of CYP3A5", "setting": "CYP3A5", "result": "< 2", "unit": "fold"}, {"measurement": "induction of expression of CYP2B6", "setting": "CYP2B6", "result": "< 2", "unit": "fold"}, {"measurement": "Mtb H37Rv R + CLAV (MIC90)", "setting": "Mtb H37Rv; clavulanate 4 μg/mL", "result": 0.5, "unit": "µM"}, {"measurement": "Mtb H37Rv R (MIC90)", "setting": "Mtb H37Rv; no clavulanate", "result": 44.7, "unit": "µM"}, {"measurement": "fraction unbound at 4 h, 2 μM", "setting": "in vitro [6]", "result": 0.973}, {"measurement": "fraction unbound at 4 h, 2 μM", "setting": "in vitro [7]", "result": 0.335}, {"measurement": "remaining at 6 h, 10 μM", "setting": "physchem; 6h", "result": 94.7, "unit": "%"}, {"measurement": "remaining at 24 h, 10 μM", "setting": "physchem; 24h", "result": 84.2, "unit": "%"}, {"measurement": "MIC90", "setting": "E. coli; Escherichia coli, E. coli", "result": 31.8, "unit": "µM"}, {"measurement": "E.coli R + CLAV (MIC90)", "setting": "E. coli; clavulanate 4 μg/mL, Table S4", "result": 31.8, "unit": "µM"}, {"measurement": "FaSSIF Stability, % remaining, 6h", "setting": "[8]; 6 h", "result": 95, "unit": "%"}, {"measurement": "FaSSIF Stability, % remaining, 24h", "setting": "[8]; 24 h", "result": 84, "unit": "%"}]}
